In PMC7413254 (Nature Communications, 2020):
Read-outs that look alike come from different tables or passages of the source.

Columns and labels:
[1] = tested on: PfCRT; assay: Test of solutes as potential co-substrates for influx of VF-6 via PfCRT into the oocyte; format: cell-based, Plasmodium falciparum; parameters: key: X: Compounds that have been tested as potential co-substrates but are not required for influx of VF-6 via PfCRT into the oocyte; details: X = tested
[2] = target: T1, PfCRT^3D7 (Plasmodium falciparum, UniProt Q8IBZ9); assay: cell-based; format: cell-based; details: total [3H]CQ transport; for inhibition at 500 µM: [test solute] = 0.5 mM; for inhibition at 1000 µM: [test solute] = 1 mM; for inhibition at 2000 µM: [test solute] = 2 mM
Procedure, shortened: (§1)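 Assay buffer ND96 (10 mM MES, 10 mM Tris-base) held at pH 5.5 to mimic vacuole lumen; uptake measured inward from this acidic medium over 1.5 h at 27.5 °C.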

[3] = target: T2, PfCRT^Ecu1110 (Plasmodium falciparum, UniProt Q9N623, A220S/I356L/K76T/N326D); assay: cell-based; format: cell-based; details: […]
Procedure, shortened: (§2)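 Transport measured in Xenopus oocytes expressing the transporters, 1.5 h at 27.5 °C in ND96 pH 5.5 unless noted. For trans-stimulation, VF-6 injected in 25 nL ND96 at pH 5.0–7.0 or Na^+-free (choline) buffer; intracellular levels based on ~400 nL oocyte volume. Ten oocytes per treatment, ≥4 experiments.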

[4] = target: T1, PfCRT^3D7; assay: cell-based; format: cell-based
Procedure, shortened: as §2

[5] = target: T3, PfNT1 (Plasmodium falciparum, UniProt Q8IDM6); assay: cell-based; format: cell-based; details: for activity at 5000 µM: total [3H]CQ transport
T3 construct: expressed in transfected cells; host or cells: Xenopus laevis oocytes (stage V-VI), cRNA-injected
Procedure, shortened: as §2

[6] = target: T4, PfCRT^Dd2 (Plasmodium falciparum, UniProt Q9N623, A220S/I356T/K76T/M74I/N326S/N75E/Q271E/R371I); assay: cell-based; format: cell-based; details: […]; for activity at 45000 µM: [test solute]i = 45 mM (30 mM for some solutes due to solubility)
Procedure, shortened: as §2

[7] = tested on: non-expressing oocytes; format: cell-based, Xenopus laevis; details: total [3H]CQ transport; for Uptake of [3H]CQ (% non-expressing oocyte control), trans-stimulation: non-expressing oocytes, normalised to the oocyte type control; for Uptake of [3H]CQ (% PfCRTDd2 control), trans-stimulation, non-expressing oocytes: mean ± SEM, SEM
Procedure, shortened: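 Oocytes (ten per treatment, ≥4 independent frogs/days) were preloaded by injecting VF-6 in 25 nL ND96 at pH 5.0, 5.5, 6.0 or 7.0, or Na^+-free choline buffer, then uptake run 1.5 h, 27.5 °C, ND96 pH 5.5 by default. Internal concentrations assumed ~400 nL oocyte volume.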

[8] = tested on: PfCRT; assay: Influx of VF-6 via PfCRT into the oocyte, solutes tested as potential co-substrates; format: cell-based, Plasmodium falciparum; parameters: key: X: Compounds that have been tested as potential co-substrates but are not required for influx of VF-6 via PfCRT into the oocyte; details: X marks the solute
[9] = target: T2, PfCRT^Ecu1110; assay: [3H]CQ uptake into Xenopus oocytes, cis-inhibition by unlabelled solute; format: cell-based
Procedure, shortened: as §1

[10] = target: T4, PfCRT^Dd2; assay: as above; format: cell-based
Procedure, shortened: as §1

[11] = tested on: non-expressing oocytes; assay: cells; format: cell-based, Xenopus laevis; details: Xenopus laevis, total [3H]CQ transport; for inhibition at 500 µM: [test solute] = 0.5 mM; for inhibition at 1000 µM: [test solute] = 1 mM; for inhibition at 2000 µM: [test solute] = 2 mM
Procedure, shortened: as §1

[12] = PfCRT3D7 oocytes, normalised to the oocyte type control, read-out: Uptake of [3H]CQ (% PfCRT3D7 control), cis-inhibition
[13] = mean ± SEM, SEM, read-out: Uptake of [3H]CQ (% PfCRTDd2 control), cis-inhibition, PfCRT3D7
[14] = read-out: PfCRT-mediated [3H]CQ transport, cis-inhibition (% PfCRTEcu1110 control)
[15] = read-out: Uptake of [3H]CQ (% PfCRTDd2 control), cis-inhibition, PfCRTEcu1110, SEM
[16] = read-out: Uptake of [3H]CQ (% PfCRTEcu1110 control), cis-inhibition
[17] = read-out: [3H]CQ transport (% PfCRTEcu1110 control), cis-inhibition, PfCRTEcu1110, SEM
[18] = read-out: PfCRT-mediated [3H]CQ transport, cis-inhibition (% PfCRTDd2 control)
[19] = read-out: Uptake of [3H]CQ (% PfCRTDd2 control), cis-inhibition
[20] = read-out: Uptake of [3H]CQ (% PfCRTDd2 control), cis-inhibition, PfCRTDd2, SEM
[21] = read-out: [3H]CQ transport (% PfCRTDd2 control), cis-inhibition, PfCRTDd2, SEM
[22] = Oocyte, mean ± SEM, SEM, read-out: Uptake of [3H]CQ (% PfCRTDd2 control), cis-inhibition, non-expressing oocytes
[23] = non-expressing oocytes, normalised to the oocyte type control, read-out: Uptake of [3H]CQ (% non-expressing oocyte control), cis-inhibition

T1 sequence (Q8IBZ9 59-398): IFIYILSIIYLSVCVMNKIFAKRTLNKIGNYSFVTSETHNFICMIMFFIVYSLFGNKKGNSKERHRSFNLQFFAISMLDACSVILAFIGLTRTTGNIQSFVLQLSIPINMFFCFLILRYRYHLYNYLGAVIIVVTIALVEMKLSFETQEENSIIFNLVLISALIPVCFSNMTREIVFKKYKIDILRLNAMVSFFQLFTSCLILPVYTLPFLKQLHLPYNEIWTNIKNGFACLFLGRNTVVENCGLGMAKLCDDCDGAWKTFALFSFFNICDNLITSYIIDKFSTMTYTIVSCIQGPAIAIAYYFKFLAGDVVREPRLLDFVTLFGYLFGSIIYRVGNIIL
T4 sequence (Q9N623 whole entry A220S/I356T/K76T/M74I/N326S/N75E/Q271E/R371I): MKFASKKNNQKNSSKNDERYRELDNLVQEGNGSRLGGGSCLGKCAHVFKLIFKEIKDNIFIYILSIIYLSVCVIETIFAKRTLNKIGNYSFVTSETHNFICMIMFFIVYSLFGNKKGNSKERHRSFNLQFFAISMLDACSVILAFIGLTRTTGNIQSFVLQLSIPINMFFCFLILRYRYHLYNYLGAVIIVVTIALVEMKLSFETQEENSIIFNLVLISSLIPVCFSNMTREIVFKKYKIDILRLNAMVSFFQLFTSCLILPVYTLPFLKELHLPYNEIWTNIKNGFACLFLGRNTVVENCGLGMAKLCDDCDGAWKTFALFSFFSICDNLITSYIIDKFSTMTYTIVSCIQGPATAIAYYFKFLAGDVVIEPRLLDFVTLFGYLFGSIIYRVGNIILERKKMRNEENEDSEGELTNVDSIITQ
T3 sequence (Q8IDM6 whole entry): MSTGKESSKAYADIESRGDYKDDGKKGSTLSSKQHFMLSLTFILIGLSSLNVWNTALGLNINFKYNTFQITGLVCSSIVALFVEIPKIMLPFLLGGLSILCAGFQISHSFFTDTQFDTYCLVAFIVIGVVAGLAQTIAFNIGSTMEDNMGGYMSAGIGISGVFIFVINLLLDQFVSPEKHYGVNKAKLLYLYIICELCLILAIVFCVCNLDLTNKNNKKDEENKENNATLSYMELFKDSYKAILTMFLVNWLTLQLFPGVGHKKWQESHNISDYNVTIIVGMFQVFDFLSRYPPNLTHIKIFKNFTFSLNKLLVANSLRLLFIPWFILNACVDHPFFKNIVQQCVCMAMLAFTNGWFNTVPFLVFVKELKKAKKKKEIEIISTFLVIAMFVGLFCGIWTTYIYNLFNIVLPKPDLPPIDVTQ
T2 sequence (Q9N623 whole entry A220S/I356L/K76T/N326D): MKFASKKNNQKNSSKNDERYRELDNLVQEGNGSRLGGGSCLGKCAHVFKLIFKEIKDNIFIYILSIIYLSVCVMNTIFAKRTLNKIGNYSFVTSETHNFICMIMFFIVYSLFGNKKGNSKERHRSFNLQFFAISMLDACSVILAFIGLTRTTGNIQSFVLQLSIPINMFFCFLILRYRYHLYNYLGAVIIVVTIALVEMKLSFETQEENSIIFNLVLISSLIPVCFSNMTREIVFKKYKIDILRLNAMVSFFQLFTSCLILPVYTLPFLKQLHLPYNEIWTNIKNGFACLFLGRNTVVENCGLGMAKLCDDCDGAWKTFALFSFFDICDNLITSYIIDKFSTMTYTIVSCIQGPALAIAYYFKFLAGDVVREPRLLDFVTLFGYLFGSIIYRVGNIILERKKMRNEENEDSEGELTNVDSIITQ

NC(=O)CC[C@H](N)C(=O)O [L-glutamine]
Tested as potential co-substrate but not required for influx of VF-6 via PfCRT into the oocyte [1]: X
inhibition at 500 µM [2, 12]: 101 ± 4.8%
inhibition at 1000 µM [2, 12]: 99 ± 3.6%
inhibition at 2000 µM [2, 12]: 99 ± 4.7%
inhibition at 500 µM [2, 13]: 2.6 ± 0.04%
inhibition at 1000 µM [2, 13]: 2.1 ± 0.01%
inhibition at 2000 µM [2, 13]: 2.6 ± 0.04%
activity at 5000 µM ([3]; pH 5.5, read-out: PfCRT-mediated [3H]CQ transport, trans-stimulation (% PfCRTEcu1110 control), [test solute]i = 5 mM (intracellular), PfCRTEcu1110 oocytes, normalised to oocyte type control): 97 ± 3.3%
activity at 5000 µM ([3]; pH 5.5, read-out: Uptake of [3H]CQ (% PfCRTEcu1110 control), trans-stimulation, PfCRTEcu1110 oocytes, [test solute]i = 5 mM, total [3H]CQ transport, normalised to the oocyte type control): 99 ± 2.7%
activity at 45000 µM ([3]; pH 5.5, read-out: Uptake of [3H]CQ (% PfCRTEcu1110 control), trans-stimulation, PfCRTEcu1110 oocytes, [test solute]i = 45 mM (30 mM for some solutes due to solubility), total [3H]CQ transport, normalised to the oocyte type control): 99 ± 3.5%
activity at 5000 µM ([3]; read-out: Uptake of [3H]CQ (% PfCRTDd2 control), trans-stimulation, PfCRTEcu1110, total [3H]CQ transport, [test solute]i = 5 mM (intracellular), mean ± SEM, SEM): 35 ± 1.3%
activity at 45000 µM ([3]; read-out: Uptake of [3H]CQ (% PfCRTDd2 control), trans-stimulation, PfCRTEcu1110, total [3H]CQ transport, [test solute]i = 45 mM (intracellular; 30 mM for some solutes due to solubility), mean ± SEM, SEM): 35 ± 2.6%
activity at 5000 µM ([4]; PfCRT3D7 oocytes, [test solute]i = 5 mM, total [3H]CQ transport, normalised to the oocyte type control, read-out: Uptake of [3H]CQ (% PfCRT3D7 control), trans-stimulation): 99 ± 3.2%
[3H]CQ transport (% PfCRT3D7 control), trans-stimulation, PfCRT3D7 ([4]; SEM): 0.3 ± 0.01 % PfCRT3D7 control
activity at 5000 µM ([4]; [test solute]i = 5 mM (intracellular), PfCRT3D7 oocytes, normalised to oocyte type control, read-out: PfCRT-mediated [3H]CQ transport, trans-stimulation (% PfCRT3D7 control)): 97 ± 4.6%
activity at 45000 µM ([4]; SEM, read-out: Uptake of [3H]CQ (% PfCRTDd2 control), trans-stimulation, PfCRT3D7): 3.3 ± 0.04%
activity at 45000 µM ([4]; read-out: PfCRT-mediated [3H]CQ transport, trans-stimulation (% PfCRT3D7 control)): 98 ± 1%
activity at 45000 µM ([4]; read-out: Uptake of [3H]CQ (% PfCRT3D7 control), trans-stimulation): 100 ± 2.7%
activity at 5000 µM ([4]; total [3H]CQ transport, [test solute]i = 5 mM (intracellular), mean ± SEM, SEM, read-out: Uptake of [3H]CQ (% PfCRTDd2 control), trans-stimulation, PfCRT3D7): 3.3 ± 0.01%
activity at 5000 µM ([5]; PfNT1 oocytes, [test solute]i = 5 mM, normalised to the oocyte type control, read-out: Uptake of [3H]CQ (% PfNT1 control), trans-stimulation): 99 ± 4.2%
activity at 45000 µM ([5]; SEM, read-out: Uptake of [3H]CQ (% PfCRTDd2 control), trans-stimulation, PfNT1): 2.8 ± 0.02%
activity at 45000 µM ([5]; read-out: Uptake of [3H]CQ (% PfNT1 control), trans-stimulation): 98 ± 3.1%
activity at 5000 µM ([5]; [test solute]i = 5 mM (intracellular), mean ± SEM, SEM, read-out: Uptake of [3H]CQ (% PfCRTDd2 control), trans-stimulation, PfNT1): 3.2 ± 0.02%
activity at 5000 µM ([6]; pH 5.5, read-out: PfCRT-mediated [3H]CQ transport, trans-stimulation (% PfCRTDd2 control), [test solute]i = 5 mM (intracellular), PfCRTDd2 oocytes, normalised to oocyte type control): 99 ± 3.4%
activity at 5000 µM ([6]; pH 5.5, read-out: Uptake of [3H]CQ (% PfCRTDd2 control), trans-stimulation, PfCRTDd2, total [3H]CQ transport, [test solute]i = 5 mM (intracellular), mean ± SEM, SEM): 101 ± 2.2%
activity at 5000 µM ([6]; pH 5.5, read-out: Uptake of [3H]CQ (% PfCRTDd2 control), trans-stimulation, PfCRTDd2 oocytes, [test solute]i = 5 mM, total [3H]CQ transport, normalised to the oocyte type control): 101 ± 2.2%
activity at 45000 µM ([6]; pH 5.5, read-out: Uptake of [3H]CQ (% PfCRTDd2 control), trans-stimulation, PfCRTDd2 oocytes, total [3H]CQ transport, normalised to the oocyte type control): 100 ± 2.4%
activity at 5000 µM ([6]; pH 5.5, read-out: [3H]CQ transport (% PfCRTDd2 control), trans-stimulation, PfCRTDd2, trans-stimulation, [test solute]i = 5 mM (injected), PfCRT-mediated component (background subtracted), mean ± SEM, SEM): 99 ± 3.4%
activity at 45000 µM ([6]; pH 5.5, read-out: [3H]CQ transport (% PfCRTDd2 control), trans-stimulation, PfCRTDd2, trans-stimulation, PfCRT-mediated component (background subtracted), mean ± SEM, SEM): 98 ± 3.7%
Uptake of [3H]CQ (% non-expressing oocyte control), trans-stimulation ([7]; [test solute]i = 5 mM): 100 ± 3.2 % non-expressing oocyte control
Uptake of [3H]CQ (% non-expressing oocyte control), trans-stimulation ([7]; [test solute]i = 45 mM (30 mM for some solutes due to solubility)): 98 ± 2.2 % non-expressing oocyte control
Uptake of [3H]CQ (% PfCRTDd2 control), trans-stimulation, non-expressing oocytes ([7]; [test solute]i = 5 mM (intracellular)): 2.7 ± 0.07 % PfCRTDd2 control
Uptake of [3H]CQ (% PfCRTDd2 control), trans-stimulation, non-expressing oocytes ([7]; [test solute]i = 45 mM (intracellular; 30 mM for some solutes due to solubility)): 2.7 ± 0.05 % PfCRTDd2 control
Compounds that have been tested as potential co-substrates but are not required for influx of VF-6 via PfCRT into the oocyte [8]: X
inhibition at 1000 µM [9, 14]: 95 ± 3.5%
inhibition at 2000 µM [9, 14]: 96 ± 6.2%
inhibition at 500 µM [9, 15]: 32 ± 0.4%
inhibition at 1000 µM [9, 15]: 32 ± 1.4%
inhibition at 2000 µM [9, 15]: 32 ± 1.1%
inhibition at 500 µM [9, 16]: 98 ± 6.9%
inhibition at 1000 µM [9, 16]: 97 ± 6.4%
inhibition at 2000 µM [9, 16]: 99 ± 6.3%
inhibition at 500 µM [9, 17]: 29 ± 1.2%
inhibition at 1000 µM [9, 17]: 29 ± 0.2%
inhibition at 2000 µM [9, 17]: 29 ± 0.1%
inhibition at 500 µM [10, 18]: 98 ± 2.8%
inhibition at 1000 µM [10, 18]: 98 ± 3.6%
inhibition at 2000 µM [10, 18]: 95 ± 5.5%
inhibition at 500 µM [10, 19]: 100 ± 4.9%
inhibition at 1000 µM [10, 19]: 100 ± 5.2%
inhibition at 500 µM [10, 20]: 100 ± 4.9%
inhibition at 1000 µM [10, 20]: 100 ± 5.2%
inhibition at 2000 µM [10, 20]: 97 ± 8.3%
inhibition at 500 µM [10, 21]: 98 ± 2.8%
inhibition at 1000 µM [10, 21]: 98 ± 3.6%
inhibition at 500 µM [11, 22]: 3.2 ± 0.07%
inhibition at 1000 µM [11, 22]: 2.7 ± 0.05%
inhibition at 2000 µM [11, 22]: 2.2 ± 0.03%
inhibition at 500 µM [11, 23]: 99 ± 3.2%
inhibition at 1000 µM [11, 23]: 100 ± 6.3%
inhibition at 2000 µM [11, 23]: 98 ± 3.5%
